Where “and” joins values, the source holds several entries; their conditions need not be identical. Identical values can stand only once. Inconclusive results and toxic doses are left out. Cut-off read from the data, not from the text of the source: active = T/C of 150% or more; inactive = T/C below 125%.
System: L1210 leukemia ip in BDF1 mice, survival T/C
Assay: NCI In Vivo Anticancer Drug Screen. Data for tumor model L1210 Leukemia (intraperitoneal) in B6D2F1 (BDF1) mice
Conditions: endpoint: mean survival time, higher = longer survival
Outline: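 Read-out is survival time, reported as the treated-group measurement over the vehicle-control measurement.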

[1] = dose: 100.0 mg/kg/injection, schedule: Q01DX009 (ip), vehicle: Klucel (hydroxypropylcellulose) (HPC)
[2] = dose: 400.0 mg/kg/injection, schedule: Q01DX009 (ip), vehicle: Klucel (hydroxypropylcellulose) (HPC)
[3] = dose: 50.0 mg/kg/injection, schedule: Q04DX002 (ip), vehicle: saline
[4] = dose: 100.0 mg/kg/injection, schedule: Q04DX002 (ip), vehicle: saline
[5] = dose: 100.0 mg/kg/injection, schedule: Q01DX001 (ip), vehicle: Klucel (hydroxypropylcellulose) (HPC)
[6] = dose: 200.0 mg/kg/injection, schedule: Q01DX001 (ip), vehicle: Klucel (hydroxypropylcellulose) (HPC)
[7] = dose: 400.0 mg/kg/injection, schedule: Q01DX001 (ip), vehicle: Klucel (hydroxypropylcellulose) (HPC)

Measured: T/C

O=P(O)(O)CCC(F)(F)C(F)(F)C(F)(F)C(F)(F)C(F)(F)C(F)(F)C(F)(F)F
inactive: dose: 75.0 mg/kg/injection, schedule: Q01DX001 (ip), vehicle: saline 96 % of control

Cc1ccc2c(c1[N+](=O)[O-])C(=O)c1ccccc1C2=O
inactive: dose: 50.0 mg/kg/injection, schedule: Q01DX001 (ip), vehicle: saline 96 % of control | dose: 100.0 mg/kg/injection, schedule: Q01DX001 (ip), vehicle: saline 90 % of control | [1] 100 % of control | dose: 100.0 mg/kg/injection, schedule: Q04DX002 (ip), vehicle: Klucel (hydroxypropylcellulose) (HPC) 104 % of control | dose: 200.0 mg/kg/injection, schedule: Q01DX001 (ip), vehicle: saline 90 % of control | dose: 200.0 mg/kg/injection, schedule: Q04DX002 (ip), vehicle: Klucel (hydroxypropylcellulose) (HPC) 110 % of control | dose: 400.0 mg/kg/injection, schedule: Q01DX001 (ip), vehicle: saline 90 % of control | [2] 111 % of control | dose: 400.0 mg/kg/injection, schedule: Q04DX002 (ip), vehicle: Klucel (hydroxypropylcellulose) (HPC) 96 % of control

CN(C)Cc1cc2ccccc2cc1C(O)(c1ccccc1)c1ccccc1
inactive: dose: 50.0 mg/kg/injection, schedule: Q01DX001 (ip), vehicle: carboxymethylcellulose (CMC) 102 % of control | dose: 100.0 mg/kg/injection, schedule: Q01DX001 (ip), vehicle: carboxymethylcellulose (CMC) 88 % of control | dose: 200.0 mg/kg/injection, schedule: Q01DX001 (ip), vehicle: carboxymethylcellulose (CMC) 94 % of control | dose: 400.0 mg/kg/injection, schedule: Q01DX001 (ip), vehicle: carboxymethylcellulose (CMC) 96 % of control

C=C(C)C1C2OC(=O)C1C1(O)CC3OC34C(=O)OC2C14C (configuration not stated)
inactive: dose: 1.25 mg/kg/injection, schedule: Q01DX001 (ip), vehicle: other 109 % of control | dose: 2.5 mg/kg/injection, schedule: Q01DX001 (ip), vehicle: other 101 % of control

Fc1ccc2[nH]c3cc4ccncc4cc3c2c1
inactive: [3] 101 % of control | [4] 94 % of control | dose: 200.0 mg/kg/injection, schedule: Q04DX002 (ip), vehicle: saline 94 % of control

O=C(Nc1cccc(CO)c1)c1ccc(S(=O)(=O)F)cc1
inactive: [5] 99 % of control | [6] 89 % of control | [7] 94 % of control

CCCCN(Cc1ccccc1)C(=S)Nc1ccccc1
inactive: [1] 106 % of control | dose: 200.0 mg/kg/injection, schedule: Q01DX009 (ip), vehicle: Klucel (hydroxypropylcellulose) (HPC) 108 % of control | [2] 108 % of control

CC(=O)NC(CSC(=S)N(C)C)C(=O)O (configuration not stated)
inactive: dose: 50.0 mg/kg/injection, schedule: Q01DX009 (ip), vehicle: saline 97 % of control | dose: 100.0 mg/kg/injection, schedule: Q01DX009 (ip), vehicle: saline 93 % of control | dose: 200.0 mg/kg/injection, schedule: Q01DX009 (ip), vehicle: saline 101 % of control

CC12CCCCC1(OC(=O)c1ccc([N+](=O)[O-])cc1)CCCC2 (configuration not stated)
inactive: dose: 75.0 mg/kg/injection, schedule: Q04DX002 (ip), vehicle: saline with Tween-80 100 % of control | dose: 150.0 mg/kg/injection, schedule: Q04DX002 (ip), vehicle: saline with Tween-80 104 % of control | dose: 300.0 mg/kg/injection, schedule: Q04DX002 (ip), vehicle: saline with Tween-80 88 % of control

NCCOP(=O)(O)OCC1OC(n2cnc3c(N)ncnc32)C(O)C1O (configuration not stated)
inactive: dose: 100.0 mg/kg/injection, schedule: Q01DX005 (ip), vehicle: saline 92 % of control | dose: 200.0 mg/kg/injection, schedule: Q01DX005 (ip), vehicle: saline 92 % of control

Cc1nccn1-c1ccc(N=Cc2ccc(N(CCCl)CCCl)cc2Cl)cc1
inactive: dose: 62.5 mg/kg/injection, schedule: Q04DX002 (ip), vehicle: Klucel (hydroxypropylcellulose) (HPC) 102 % of control | dose: 125.0 mg/kg/injection, schedule: Q04DX002 (ip), vehicle: Klucel (hydroxypropylcellulose) (HPC) 98 % of control | dose: 250.0 mg/kg/injection, schedule: Q04DX002 (ip), vehicle: Klucel (hydroxypropylcellulose) (HPC) 106 % of control

C[CH2][Ge]([CH2]C)([CH2]C)[CH2]C#N
inactive: dose: 5.0 mg/kg/injection, schedule: Q04DX002 (ip), vehicle: saline with Tween-80 100 % of control | dose: 10.0 mg/kg/injection, schedule: Q04DX002 (ip), vehicle: saline with Tween-80 103 % of control | dose: 20.0 mg/kg/injection, schedule: Q04DX002 (ip), vehicle: saline with Tween-80 100 % of control

COC(C)c1cnccc1/C(C)=C1/Nc2ccccc2C1=O (configuration not stated)
inactive: dose: 50.0 mg/kg/injection, schedule: Q04DX003 (ip), vehicle: Klucel (hydroxypropylcellulose) (HPC) 95 % of control | [5] 107 % of control | dose: 100.0 mg/kg/injection, schedule: Q04DX003 (ip), vehicle: Klucel (hydroxypropylcellulose) (HPC) 100 % of control and 91 % of control | [6] 94 % of control | dose: 200.0 mg/kg/injection, schedule: Q04DX003 (ip), vehicle: Klucel (hydroxypropylcellulose) (HPC) 96 % of control | [7] 97 % of control | dose: 400.0 mg/kg/injection, schedule: Q04DX003 (ip), vehicle: Klucel (hydroxypropylcellulose) (HPC) 97 % of control

C=CCO[Si](OCC=C)(OCC=C)OCC=C
inactive: dose: 75.0 mg/kg/injection, schedule: Q01DX001 (ip), vehicle: other 101 % of control | dose: 150.0 mg/kg/injection, schedule: Q01DX001 (ip), vehicle: other 98 % of control

c1cc2c3c(c1)ncn3CCC2
inactive: dose: 50.0 mg/kg/injection, schedule: Q01DX009 (ip), vehicle: other 119 % of control | dose: 100.0 mg/kg/injection, schedule: Q01DX009 (ip), vehicle: other 104 % of control | dose: 100.0 mg/kg/injection, schedule: Q04DX003 (ip), vehicle: saline with Tween-80 102 % of control | dose: 200.0 mg/kg/injection, schedule: Q01DX009 (ip), vehicle: other 117 % of control | dose: 200.0 mg/kg/injection, schedule: Q04DX003 (ip), vehicle: saline with Tween-80 100 % of control

CC(C)(C)C1CCC(=O)CC1
inactive: dose: 12.5 mg/kg/injection, schedule: Q04DX002 (ip), vehicle: saline 109 % of control | dose: 25.0 mg/kg/injection, schedule: Q04DX002 (ip), vehicle: saline 106 % of control | [3] 95 % of control | [4] 99 % of control

— PubChem BioAssay AID248 (DTP/NCI, 2004)
